From patent publication US4584300A, “Platelet anti-aggregative- and calcium antagonistic -1,4-benzothiazin-3-one derivatives, compositions, and methods of use therefor” (Santen Pharmaceutical Co., Ltd., priority 1983, dated 1986)
Where a name gives a salt, the structure may show the parent alone.

Legend:
[1] = test system: guinea-pig teania coli; test: Calcium-antagonistic activity: inhibition of CaCl2-evoked contraction of isolated guinea-pig teania coli; assay type: tissue-based; conditions: Cavia porcellus, 5 min; 50% inhibition of Ca^++-evoked contraction; CaCl2 3×10^-4 M; 5 minutes exposure; 32° C.
Procedure: The action potentials on the smooth muscles of uterus, teania coli and portal vein are dependent on calcium ion, and therefor these smooth muscle preparations are useful for screening of calcium antagonists. We measured the calcium-antagonistic activity of the compounds by the method using guinea-pig teania coli preparation.
Isolated guinea-pig teania coli was suspended in a 20 ml organ bath with Krebs solution at 32° C. and bubbled with 5% carbon dioxide in oxygen. After equilibration, the muscle was washed with Ca^++ -free Krebs solution, and when the muscle had relaxed to basal level, it was suspended in Ca^++ -free-high-K Krebs solution.
The muscle was exposed to test compounds for 5 minutes before addition of CaCl2, and the contraction evoked by CaCl2 (3×10^-4 M) was recorded isotonically. The calcium-antagonistic activity was represented by the concentration of test compound which elicited 50% inhibition of Ca^++ -evoked contraction (IC50).

[2] = test system: blood platelet (rabbit platelet rich plasma); test: Anti-aggregatory activity: inhibition of collagen- or ADP-induced platelet aggregation in vitro (PRP); assay type: cell-based; conditions: Oryctolagus cuniculus, 50% inhibition of control response, collagen (3 μg/ml) or ADP (3 μM), table does not say which, 37° C.
Procedure: Blood was obtained from an anesthetized rabbit using 0.1 volumes of 3.8% sodium citrate as anticoagulant. Platelet rich plasma(PRP) was isolated by centrifugation at 650 rpm for 10 minutes at room temperature. After preincubation of PRP (0.25 ml) with various concentrations of test compounds (14 μl) for 1 minute at 37° C., collagen (3 μg/ml:final concentration) or ADP (3 μM:final concentration) was added to induce aggregation and the aggregation profiles were monitored with RIKADENKI six-channel aggregometer. The control experiment contained saline instead of test compound.
The anti-aggregatory activity was represented by the concentration of test compound which elicited 50% inhibition of control response.

[3] = Acute toxicity test, oral; conditions: mouse, in vivo, orally, male ddy-SLC mice
Procedure: Male ddy-SLC strain mice (4 weeks of age, weighing 19-21 g) were placed in a breeding room of constant temperature and huminity (23±1° C., 55±5%) and fed freely pellet diet and water ad. libitum for a week. Mice showing normal growth were selected for the test. (method of administration)
Test compounds are suspended in 0.5% tragacanth suspention and administered orally in a dose of 0.5 ml/20 g body weight.

IC50 [1] [nM]	Compound	IC50 [2] [nM]	LD50 [3] [mg/kg]
2000	COc1ccc(OCCCN(C)CCc2ccc(OC)c(OC)c2)c(C2Sc3ccccc3NC2=O)c1 (stereo not shown) [Compound 59]	–	–
3900	COc1ccc(OCCCCN2CCN(CC(=O)c3ccccc3)CC2)c(C2Sc3ccccc3N(C)C2=O)c1 (stereo not shown) [Compound 79]	–	–
2600	COc1ccc(OCCCCCN(C)C2CCCCC2)c(C2Sc3ccccc3NC2=O)c1 (stereo not shown) [Compound 58]	–	–
1600	COc1ccc(OCCCN(C)C2CCCCC2)c(C2Sc3ccccc3N(C)C2=O)c1 (stereo not shown) [Compound 62]	–	–
2500	COc1ccc(OCCCN(C)C)c(C2Sc3ccccc3N(C)C2=O)c1 (stereo not shown) [Compound 61]	–	–
3000	COc1ccc(OCCCCN2CCN(CCc3cc(OC)c(OC)c(OC)c3)CC2)c(C2Sc3ccccc3NC2=O)c1 (stereo not shown) [Compound 75]	–	–
2000	COc1ccc(CCN2CCN(CCCOc3ccc(C4Sc5ccccc5NC4=O)cc3)CC2)cc1OC (stereo not shown) [Compound 71]	–	–
3800	COc1ccc(OCC(O)CN2CCN(CC(=O)c3ccccc3)CC2)c(C2Sc3ccccc3N(C)C2=O)c1 (stereo not shown) [Compound 107, 3,4-Dihydro-2-[5-methoxy-2-[2-hydroxy-3-(4-phenacylpiperazino)propoxy]phenyl]-4-methyl-3-oxo-2H-1,4-benzothiazine dimaleate]	–	–
2600	CN(C)CCCOc1ccc(C2Sc3ccccc3N(C)C2=O)cc1 (stereo not shown) [Compound 72, 3,4-Dihydro-2-[4-(3-dimethylaminopropoxy)phenyl]-4-methyl-3-oxo-2H-1,4-benzothiazine]	–	–
1800	COc1ccc(OCCCCN2CCC(C(=O)c3ccccc3)CC2)c(C2Sc3ccccc3N(C)C2=O)c1 (stereo not shown) [Compound 65]	–	–
1900	CN(CCCOc1ccc(C2Sc3ccccc3NC2=O)cc1)C1CCCCC1 (stereo not shown) [Compound 68]	–	–
3000	COc1ccc(OCCCCCN(C)C2CCCCC2)c(C2Sc3ccccc3N(C)C2=O)c1 (stereo not shown) [Compound 64]	–	–

The remaining lines, values behind:

Compound	IC50 [1] [nM]	IC50 [2] [nM]	LD50 [3] [mg/kg]
CN(C)CCCOc1ccc(C2Sc3ccccc3NC2=O)cc1 (stereo not shown) [Compound 67]	–	1600	–
COc1ccc(OCCCN2CCN(CC(=O)c3ccccc3)CC2)c(C2Sc3ccccc3NC2=O)c1 (stereo not shown) [Compound 76]	–	3200	–
CN1C(=O)C(c2ccc(OCCCN(C)C3CCCCC3)cc2)Sc2ccccc21 (stereo not shown) [Compound 73]	3400	–	500 to 1000
COc1ccc(OCCCN(C)C)c(C2Sc3ccccc3N(CCCN(C)C)C2=O)c1 (stereo not shown) [Compound 82, 3,4-Dihydro-2-[2-(3-dimethylaminopropoxy)-5-methoxyphenyl]-4-(3-dimethylaminopropyl)-3-oxo-2H-1,4-benzothiazine dioxalate]	–	3200	–
COc1ccc(OCC(O)CNC(C)(C)C)c(C2Sc3ccccc3NC2=O)c1 (stereo not shown) [Compound 105, 2-[2-(3-tert-Butylamino-2-hydroxypropoxy)-5-methoxyphenyl]-3,4-dihydro-3-oxo-2H-1,4-benzothiazine]	–	1000	–
COc1ccc(OCCCN(C)C)c(C2Sc3ccccc3NC2=O)c1 (stereo not shown) [Compound 55, 3,4-dihydro-2-[2-(3-dimethylaminopropoxy)-5-methoxyphenyl]-3-oxo-2H-1,4-benzothiazine]	–	3200	–
COc1ccc(OCCCN2CCN(CCc3cc(OC)c(OC)c(OC)c3)CC2)c(C2Sc3ccccc3N(C)C2=O)c1 (stereo not shown) [Compound 77]	1600	–	> 1280
COc1ccc(OCC(O)CNC(C)(C)C)c(C2Sc3ccccc3N(C)C2=O)c1 (stereo not shown) [Compound 106]	–	1300	–
COc1ccc(OCCCCN(C)C2CCCCC2)c(C2Sc3ccccc3N(C)C2=O)c1 (stereo not shown) [Compound 63, 3,4-Dihydro-2-[5-methoxy-2-[4-(N-methylcyclohexylamino)butoxy]phenyl]-4-methyl-3-oxo-2H-1,4-benzothiazine oxalate]	–	3200	–
COc1ccc(OCCCCN(C)C2CCCCC2)c(C2Sc3ccccc3NC2=O)c1 (stereo not shown) [Compound 57]	–	3200	–
COc1ccc(OCCCCN2CCN(CCc3cc(OC)c(OC)c(OC)c3)CC2)c(C2Sc3ccccc3N(C)C2=O)c1 (stereo not shown) [Compound 78]	–	3500	–
